Test results taken from patent US11680050B2, “Crystalline forms of ozanimod and ozanimod hydrochloride, and processes for preparation thereof” (RECEPTOS LLC, priority 2016, dated 2023).
Values after ≈ are worked out from the molar mass of the structure shown. Each block holds one compound with its values, some of them ahead of it.

Columns and labels:
Assay type in all cases: physicochemical
[1] = Hygroscopicity assessment by dynamic vapor sorption (DVS); details: for Weight gain under 80% RH: DVS, 25° C.
Procedure: Dynamic Vapor Sorption (DVS) is measured via an SMS (Surface Measurement Systems Ltd.) intrinsic DVS. Typical Parameters for DVS test are as follows:
Gas and flow rate: N2, 200 mL/min
RH range: 0% RH to 95% RH […]
Dynamic vapor sorption (DVS) was applied to test hygroscopicity of Form CS1 of ozanimod hydrochloride with about 10 mg of samples.
Description and definition of hygroscopicity (Chinese Pharmacopoeia 2015 edition appendix Drug hygroscopic test guidelines, test at 25° C.+/−1° C., 80% RH). • deliquescent: Sufficient water is absorbed to form a liquid; • very hygroscopic: Increase in mass is equal to or greater than 15 percent; • hygroscopic: Increase in mass is less than 15 percent and equal to or greater than 2 percent; • slightly hygroscopic: Increase in mass is less than 2 percent and equal to or greater than 0.2 percent. • non hygroscopic or almost non hygroscopic: Increase in mass is less than 0.2 percent.

[2] = Particle size distribution test (laser particle size analyzer, wet process); details: for MV, average particle size calculated by volume: dispersion medium Isopar G; for D10 / D50 (median diameter) / D90: volume distribution, Isopar G
Procedure: The particle size distribution test in the present disclosure is acquired by the S3500 laser particle size analyzer of Microtrac. Microtrac S3500 is equipped with the SDC (Sample Delivery Controller). The test is carried out by wet process, and the dispersion medium is Isopar G The parameters are as follow:
Certain amount of samples of Form CS1, Form CS2, Form CS3, Form CS5, Form CS6 of ozanimod and Form CS1 of ozanimod hydrochloride were taken for particle size distribution test.

[3] = Stability assessment in constant temperature and humidity chambers (HPLC purity, XRPD crystalline form); details: for 1 week purity % / 2 week purity % / 4 week purity %: HPLC; for Change of the crystalline form: XRPD; for Stability, overall conclusion of the storage test: after storage under all conditions tested for the form
Procedure: (§1) Three solid samples of Form CS1 were placed in constant temperature and humidity chambers at 25° C./60% RH, 40° C./75% RH and 60° C./75% RH for 4 weeks. XRPD was used to test the crystalline form at the end of week 4. HPLC was used to measure the chemical purity at the end of week 1, 2, and 4. The XRPD comparison result is shown in FIG. 31 (from top to bottom: XRPD pattern of Form CS1 before and after being stored under 25° C./60% RH, 40° C./75% RH and 60° C./75% RH for 4 weeks), and the results are shown in Table 20.
as §1, with “Four” for “Three”, “CS2” for “CS1”, “weeks and 80° C. for 1 week.” for “weeks.”, “32” for “31”, “weeks and 80° C. for 1 week),” for “weeks),”, “21.” for “20.”
as §1, with “Form CS3” for “Form CS1”, “comparison pattern” for “comparison result”, “FIG. 33” for “FIG. 31”, “Table 22.” for “Table 20.”
as §1, with “Form CS5” for “Form CS1”, “for 2” for “for 4”, “[…].” for “4. HPLC was used to measure the chemical purity at the end of week 1, 2, and 4.”, “comparison pattern” for “comparison result”, “FIG. 34” for “FIG. 31”, “Table 23.” for “Table 20.”
Two samples of Form CS6 were placed in constant temperature and humidity chambers at 25° C./60% RH and 40° C./75% RH for 4 weeks. XRPD was used to test the crystalline form at the end of week 4. HPLC was used to measure the chemical purity at the end of week 1, 2, and 4.The XRPD comparison result is shown in FIG. 35 (from top to bottom: XRPD pattern of Form CS6 before and after being stored under 25° C./60% RH and 40° C./75% RH for 4 weeks), and the results are shown in Table 24.
Four samples of Form CS1 of ozanimod hydrochloride were placed in constant temperature and humidity chambers at 25° C./60% RH, 40° C./75% RH and 60° C./75% RH for 4 weeks and 80° C. for 1 week. XRPD was used to test the crystalline form at the end of week 4. HPLC was used to measure the chemical purity at the end of week 1, 2, and 4. The XRPD comparison pattern is shown in FIG. 36 (from top to bottom: XRPD pattern of ozanimod hydrochloride Form CS1 before and after being stored under 25° C./60% RH, 40° C./75% RH and 60° C./75% RH for 4 weeks and 80° C. for 1 week), and the results are shown in Table 25.

[4] = Mechanical stability, manual grinding for 5 minutes in mortar, XRPD; details: ground manually for 5 minutes, XRPD before and after
Procedure: Solid samples of Form CS3, Form CS5, Form CS6 of ozanimod and Form CS1 of ozanimod hydrochloride were ground manually for 5 minutes in mortar.

[5] = Solubility assessment of saturated solutions in SGF, FeSSIF and water, measured by HPLC
Procedure: Form CS1 and Form CS1 of ozanimod hydrochloride were suspended into SGF (Simulated gastric fluids) and FeSSIF (Fed state simulated intestinal fluids, pH=5.0) to obtain saturated solutions. After being equilibrated for 1 h, 4 h and 24 h, concentrations of the saturated solutions were measured by HPLC.
Form CS3 and Form CS5 were suspended into SGF (Simulated gastric fluids) and water, and Form CS2 was suspended into FeSSIF (Fed state simulated intestinal fluids) to obtain saturated solutions. After being equilibrated for 1 h, 4 h and 24 h, concentrations of the saturated solutions were measured by HPLC.

Weight gain under 80% RH [1]: 2.25% | MV, average particle size calculated by volume [2]: 66.62 μm | D10 [2]: 20.36 μm | D50 (median diameter) [2]: 51.80 μm | D90 [2]: 130.8 μm | 1 week purity % ([3]; 25° C./60% RH): 99.53% | 2 week purity % ([3]; 25° C./60% RH, 2 weeks): 99.30% | 4 week purity % ([3]; 25° C./60% RH, 4 weeks): 99.31% | Change of the crystalline form ([3]; 25° C./60% RH, 4 weeks): No change | 1 week purity % ([3]; 40° C./75% RH): 99.52% | 2 week purity % ([3]; 40° C./75% RH, 2 weeks): 99.28% | 4 week purity % ([3]; 40° C./75% RH, 4 weeks): 99.17% | Change of the crystalline form ([3]; 40° C./75% RH, 4 weeks): No change | 1 week purity % ([3]; 60° C./75% RH): 99.36% | 2 week purity % ([3]; 60° C./75% RH, 2 weeks): 98.84% | 4 week purity % ([3]; 60° C./75% RH, 4 weeks): 98.54% | Change of the crystalline form ([3]; 60° C./75% RH, 4 weeks): No change | Stability, overall conclusion of the storage test [3]: good stability | Form change under mechanical stress [4]: No form change | Solubility ([5]; SGF, 1 h): 540 µg/mL (≈ 1340 µM) | Solubility ([5]; SGF, 4 h): 520 µg/mL (≈ 1290 µM) | Solubility ([5]; SGF, 24 h): 540 µg/mL (≈ 1340 µM) | solubility at 1 h ([5]; water, thermodynamic from solid, H2O, 1 h): 170 µg/mL (≈ 420 µM) | solubility at 24 h ([5]; water, thermodynamic from solid, H2O, 24 h): 350 µg/mL (≈ 865 µM)
SMILES: CC(C)Oc1ccc(-c2nc(-c3cccc4c3CC[C@@H]4NCCO)no2)cc1C#N [Form CS3, ozanimod]

Weight gain under 80% RH [1]: 0.23% | MV, average particle size calculated by volume [2]: 68.84 μm | D10 [2]: 6.55 μm | D50 (median diameter) [2]: 41.10 μm | D90 [2]: 173.3 μm | Change of the crystalline form ([3]; 25° C./60% RH, 2 weeks): No change | Change of the crystalline form ([3]; 40° C./75% RH, 2 weeks): No change | Change of the crystalline form ([3]; 60° C./75% RH, 2 weeks): No change | Stability, overall conclusion of the storage test [3]: good stability | Form change under mechanical stress [4]: No form change | Solubility ([5]; H2O, 24 h): 270 µg/mL (≈ 668 µM) | Solubility ([5]; SGF, 4 h): 1000 µg/mL (≈ 2470 µM) | Solubility ([5]; SGF, 24 h): 770 µg/mL (≈ 1900 µM) | solubility at 4 h ([5]; water, thermodynamic from solid, H2O, 4 h): 260 µg/mL (≈ 643 µM)
SMILES: CC(C)Oc1ccc(-c2nc(-c3cccc4c3CC[C@@H]4NCCO)no2)cc1C#N [Form CS5, ozanimod]
Hygroscopicity class according to the definition of hygroscopicity ([1]; Chinese Pharmacopoeia 2015, 25° C., 80% RH): slightly hygroscopic (Increase in mass is less than 2 percent and equal to or greater than 0.2 percent)
